Experiment [1] deals with T1, GPR78 (Homo sapiens, UniProt Q96P69).
T1 construct: Full length open reading frames (ORFS) of GPR78 and GPR26 were obtained with PCR; expressed in transfected cells; host or cells: HEK293/cre-luc
The experiment can be described thus: antagonist cre-luc reporter assay, inhibition of GPR78 activation. Type of experiment: cell-based. How it is done:
(§1) Screening was performed by using cells transiently expressing GPR26 or GPR78. HEK293/cre-luc cells were harvested by using 0.05% trypsin EDTA solution, and were suspended in complete culture medium at a density of 20 million in 0.4 ml transfection cuvettes. One 1 microgram plasmid construct containing GPR78 or GPR26 cDNA was transfected into reporter cells by electroporation using the GenePulser (Bio-Red Laboratories, Hercules, Calif.). The transfection conditions were: voltage at 200 volts and capacity at 500 microfarads. After electroporation, cells were suspended at a density of 25,000 cells in 25 μl complete medium and placed in a 384-well plate. After 24 hours of transfection, the transfection medium was replaced with fresh complete medium. Empty plasmid vector was transfected as a negative control (mock transfection). The compounds were arranged in 96-well format in eight racks of 80, with one compound per well (250 μl at 10 mM in DMSO). […] By the end of incubation, 25 ul of Bright-Glo™ (Promega, Madison, Wis.) was added into each well. Luciferase activity was determined with a Luminometer (Luminoskan Ascent, Thermo Labsystems), at a speed of 100 milliseconds per well.
(§2) To determine the inhibitory potency of the two molecules, dose-response curves were generated with the same assay method and IC50 values calculated from the curves.
(A reporter such as luciferase makes a cellular process visible.)

Experiment [2] has as its target T2, GPR26 (Homo sapiens, UniProt Q8NDV2).
T2 construct: Full length open reading frames (ORFS) of GPR78 and GPR26 were obtained with PCR; expressed in transfected cells; host or cells: HEK293/cre-luc
As to the kind of experiment: antagonist cre-luc reporter assay, inhibition of GPR26 activation. It counts as cell-based. How it is done:
as §1, §2

Experiment [3] has as its target T1, GPR78. As to the kind of experiment: cre-luciferase cAMP reporter assay in GPR78-transfected HEK293/cre-luc cells. As to conditions: for cAMP stimulation: final concentration 300 μM in 1.5% DMSO, luciferase reporter assay and direct cAMP measurement (Perkin-Elmer kit); for cAMP level compared to buffer control / genistein: isoflavones, FIG. 3; for effect on genistein-induced cAMP: FIG. 6A; for cAMP level compared with GPR78-expressing cells stimulated with buffer (Basal): Tyrphostin B42 at 23 μM, Tyrphostin A9 at 24 μM. Type of experiment: cell-based. How it is done:
(§3) HEK293/cre-luc cells were harvested by 0.05% trypsin EDTA buffer, cells re-suspended in complete culture medium 20 million in […] transfection cuvette, 1 microgram receptor plasmid was transfected into reporter cells by electroporation method. The parameter of the GenePulser (Bio-Rad Laboratories, Hercules, Calif.) was set at: voltage 200 volts and capacity 500 microfarads. After electroporation, cells were re-suspended at a density of 25,000 cells in 25 μl complete medium, placed in 384-well plate. After 24 hours of transfection, the transfection medium was replaced with fresh complete medium. Empty plasmid vector was transfected as a negative control (mock transfection).
When inhibitors were used in the assay, they were added 30 minutes before cell stimulation. At the end of incubation, 25 μl of Bright-Glo™ obtained from Promega (Madison, Wis.) was added into each well. Luciferase activity was determined with a luminometer (Luminoskan Ascent®, Thermo-Electron Corp.), at a speed of 100 milliseconds per well.
Response of cells with the expressed receptor to test ligand stimulation was subject to two types of detection: intracellular cAMP accumulation and intracellular Ca2+ flux monitored with fluorescent intensity using a Fluorimetric Image Plate Reader (FLIPR).

For another experiment, the target named is adenylyl cyclase. As to conditions: cell-free enzyme assays, ref [28]; read-out: published IC50; cited from earlier work.
Experiment [4] addresses T2, GPR26. As to the kind of experiment: cre-luciferase cAMP reporter assay in GPR26-transfected HEK293/cre-luc cells. As to conditions: cre-luc reporter assay, transient transfection, FIG. 8A; read-out: EC50, activation of GPR26. It counts as cell-based. How it is done: as §3
Forty hours after transfection, cells were stimulated by adding 5 μl of ligand in 60 μM 4-(3-butoxy-4-methoxy-benzyl)-2-Imidazolidinone in 293 SFM II serum-free media obtained from Gibco (Gaithersburg, Md.), and incubated for 6 hours at 37° C. in a 5% CO2-95% air incubator. […] Luciferase activity was determined with a luminometer (Luminoskan Ascent®, Thermo-Electron Corp.), at a speed of 100 milliseconds per well.
(§4) GPR26, another orphan GPCR, shares 51% identity in the seven transmembrane regions with GPR78 ([19]). […] HEK293/cre-luc cells were transiently transfected with pCR3.1-GPR26 and monitored cAMP levels upon stimulation with genistein. […]

Another experiment deals with protein tyrosine kinase. As to conditions: literature values; for genistein depending on the substrates used; read-out: IC50, inhibition of protein tyrosine kinase; cited from earlier work.
Experiment [5] has as its target T2, GPR26. The experiment can be described thus: direct intracellular cAMP measurement (Meso Scale Discovery kit) in HEK293/cre-luc cells stably transfected with GPR26. As to conditions: cells stably expressing GPR26, FIG. 8B. It counts as cell-based. How it is done:
(§5) Constructs PCR3.1-GPR78 and PCR3.1-GPR26 were transfected into HEK293/cre-luc cells with use of Lipofectamine™ 2000 and cells were selected for G418 resistance. Cells resistant to G418 were further diluted and selected for individual colonies. Cell lines grown from the G418-resistant colonies were screened for positive response with genistein in the Cre-Luciferase cAMP assay.
(§6) Intracellular cAMP was measured directly with a cAMP kit purchased from Meso Scale Discovery (Gaithersburg, Md., Ma6000 cAMP 384-well Kit, Catalog number K210FDD-2). The assay was preformed by following the manufacturer's protocol. Briefly, stable HEK293/cre-luc cells expressing GPR78 or GPR26 were harvested, washed with PBS and resuspended at 300,000/10 μl of assay buffer (from the kit) containing 0.5 mM IBMX. Genistein at appropriate concentrations was diluted in the cAMP assay buffer and 5 μl was added into wells of the assay plate. The mixture was then incubated at room temperature for 30 minutes. Light intensity in assay wells was measured using a MSD SI6000 instrument obtained from Meso Scale Discovery.
as §4

Experiment [6] deals with T1, GPR78. The experiment can be described thus: Ca2+ flux assay (FLIPR) in GPR78-expressing HEK/cre-luc cells. It counts as cell-based. Conditions: genistein at concentrations near 100 μM, FIG. 5. The text has this: Response of cells with the expressed receptor to test ligand stimulation was subject to two types of detection: intracellular cAMP accumulation and intracellular Ca2+ flux monitored with fluorescent intensity using a Fluorimetric Image Plate Reader (FLIPR). For cAMP measurement, a HEK293 cell line that had been stably transfected with luciferase reporter gene, was used as a host cell transiently transfected with the pCR3.1-GPR78 construct described in Example 1.
(§7) Ca2+ flux measurements were taken to test if GPR78, when activated with genistein, is coupled to the Gq-mediated pathway.
A general note: A change in cytosolic calcium serves as a functional read-out for many receptors and channels.

In a further experiment the target is T3, GPR30 (Homo sapiens, UniProt Q99527).
T3 construct: host or cells: MCF-7, MDA-MB-231, SKBR3 (as cited)
As to conditions: Gβγ-mediated pathway, ref [25]; cited from earlier work.

For experiment [7], the target named is T1, GPR78. As to the kind of experiment: direct intracellular cAMP measurement (Meso Scale Discovery kit) in HEK293/cre-luc cells stably transfected with GPR78. It counts as cell-based. Conditions: FIG. 2C, read-out: EC50, increase of cAMP level. How it is done:
as §5, §6

The next experiment concerns the target T4, GPR154 (Homo sapiens, UniProt Q6W5P4).
T4 construct: expressed in transfected cells; host or cells: HEK293/cre-luc
T4 sequence (Q6W5P4 1-371): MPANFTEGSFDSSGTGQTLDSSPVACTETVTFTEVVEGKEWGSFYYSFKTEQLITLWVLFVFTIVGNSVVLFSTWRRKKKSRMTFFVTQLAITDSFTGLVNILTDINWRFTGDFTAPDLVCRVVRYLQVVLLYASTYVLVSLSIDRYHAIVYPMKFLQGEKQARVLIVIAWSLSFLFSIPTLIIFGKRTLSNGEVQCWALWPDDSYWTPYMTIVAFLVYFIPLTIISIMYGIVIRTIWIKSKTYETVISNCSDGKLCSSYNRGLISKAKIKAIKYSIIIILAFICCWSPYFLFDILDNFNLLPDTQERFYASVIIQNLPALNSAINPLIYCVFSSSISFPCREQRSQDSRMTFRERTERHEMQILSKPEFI
The experiment can be described thus: Ca2+ flux assay (FLIPR), positive control receptor. Type of experiment: cell-based. Conditions: FIG. 5.
Excerpt: as §7

Another experiment addresses protein kinase A. Conditions: ref [27]; read-out: reported IC50 of H89; cited from earlier work.
Another experiment deals with NO synthase (NOS) (Mus musculus, UniProt P29477). As to conditions: read-out: IC50, inhibition of NOS; cultured peritoneal macrophages, ref [40]; cited from earlier work.
Another experiment relates to rabbit aortic rings. As to conditions: read-out: IC50, block of acetylcholine-induced relaxation, ref [40]; cited from earlier work.

These results are taken from patent US7872101B1, “Modulators of the orphan G protein-coupled receptors GPR78 and GPR26” (Schering Corporation, priority 2006, dated 2011).

By IC50 is commonly meant the concentration that gives 50% inhibition. The EC50 is the concentration needed to bring the measured effect to its halfway point.

Where two headings read alike, the source gives them in different places.

T2 sequence (Q8NDV2 whole entry): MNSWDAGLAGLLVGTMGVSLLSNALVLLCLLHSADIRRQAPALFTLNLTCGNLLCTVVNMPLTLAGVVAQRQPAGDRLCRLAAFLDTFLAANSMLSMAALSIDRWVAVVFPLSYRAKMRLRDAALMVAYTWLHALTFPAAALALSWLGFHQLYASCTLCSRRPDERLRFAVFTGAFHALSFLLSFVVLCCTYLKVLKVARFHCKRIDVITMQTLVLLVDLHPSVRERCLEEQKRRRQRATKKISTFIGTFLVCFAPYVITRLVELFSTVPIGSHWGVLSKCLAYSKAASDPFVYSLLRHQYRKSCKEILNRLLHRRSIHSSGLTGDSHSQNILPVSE
T1 sequence (Q96P69 whole entry): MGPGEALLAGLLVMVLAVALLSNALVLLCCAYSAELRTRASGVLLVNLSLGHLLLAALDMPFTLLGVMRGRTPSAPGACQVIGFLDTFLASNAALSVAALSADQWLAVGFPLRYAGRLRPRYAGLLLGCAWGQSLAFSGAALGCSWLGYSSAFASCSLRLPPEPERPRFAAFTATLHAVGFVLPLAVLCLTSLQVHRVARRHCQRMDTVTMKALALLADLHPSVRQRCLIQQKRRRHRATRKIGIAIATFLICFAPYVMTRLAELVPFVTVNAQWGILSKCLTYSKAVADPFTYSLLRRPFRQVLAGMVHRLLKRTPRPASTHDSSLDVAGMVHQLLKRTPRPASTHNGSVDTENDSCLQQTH
Chain of NO synthase (NOS) (P29477 whole entry): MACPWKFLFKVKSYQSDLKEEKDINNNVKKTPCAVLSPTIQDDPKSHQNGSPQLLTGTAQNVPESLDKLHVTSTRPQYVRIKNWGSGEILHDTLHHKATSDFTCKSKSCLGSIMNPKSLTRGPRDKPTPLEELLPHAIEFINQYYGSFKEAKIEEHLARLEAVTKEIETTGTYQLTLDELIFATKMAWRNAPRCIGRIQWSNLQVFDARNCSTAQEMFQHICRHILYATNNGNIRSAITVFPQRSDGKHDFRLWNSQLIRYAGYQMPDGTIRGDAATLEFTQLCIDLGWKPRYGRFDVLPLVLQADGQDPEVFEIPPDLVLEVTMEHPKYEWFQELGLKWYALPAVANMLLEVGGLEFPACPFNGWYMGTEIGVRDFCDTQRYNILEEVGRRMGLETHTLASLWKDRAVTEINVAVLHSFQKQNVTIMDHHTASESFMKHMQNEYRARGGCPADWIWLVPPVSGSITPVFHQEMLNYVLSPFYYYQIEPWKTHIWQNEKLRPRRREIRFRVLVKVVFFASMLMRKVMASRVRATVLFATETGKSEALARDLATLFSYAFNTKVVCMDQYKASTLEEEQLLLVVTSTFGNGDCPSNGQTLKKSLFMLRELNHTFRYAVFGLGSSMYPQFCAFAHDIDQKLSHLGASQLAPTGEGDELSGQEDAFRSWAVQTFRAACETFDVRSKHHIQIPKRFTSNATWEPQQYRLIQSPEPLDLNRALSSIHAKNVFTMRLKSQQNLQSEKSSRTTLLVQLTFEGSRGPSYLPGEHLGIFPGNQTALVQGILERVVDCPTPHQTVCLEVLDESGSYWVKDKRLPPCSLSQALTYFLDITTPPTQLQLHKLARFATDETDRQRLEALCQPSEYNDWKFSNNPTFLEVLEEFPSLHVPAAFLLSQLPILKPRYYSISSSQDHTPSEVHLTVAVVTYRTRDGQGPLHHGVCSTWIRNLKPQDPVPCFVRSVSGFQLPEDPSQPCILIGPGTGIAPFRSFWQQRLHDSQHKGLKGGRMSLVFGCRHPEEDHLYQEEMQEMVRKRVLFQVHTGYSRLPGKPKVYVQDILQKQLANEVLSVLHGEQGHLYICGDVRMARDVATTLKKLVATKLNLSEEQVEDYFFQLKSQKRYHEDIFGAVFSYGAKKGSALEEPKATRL
T3 sequence (Q99527 whole entry): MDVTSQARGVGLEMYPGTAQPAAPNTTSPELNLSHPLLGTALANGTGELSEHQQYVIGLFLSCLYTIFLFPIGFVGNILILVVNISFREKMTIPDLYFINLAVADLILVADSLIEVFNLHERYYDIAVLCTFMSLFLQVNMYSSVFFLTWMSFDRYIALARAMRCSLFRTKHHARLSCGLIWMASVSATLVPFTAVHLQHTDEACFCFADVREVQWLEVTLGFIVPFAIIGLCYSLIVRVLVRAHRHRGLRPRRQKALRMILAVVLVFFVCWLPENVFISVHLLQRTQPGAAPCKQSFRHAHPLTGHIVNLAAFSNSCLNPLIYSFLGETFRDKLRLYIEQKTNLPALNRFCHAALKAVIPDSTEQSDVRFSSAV

On to `C[n+]1cc2c3c(ccc2c2ccc4cc5c(cc4c21)OCO5)OCO3` [sanguinarine Cl hydrate], for which the IC50 on GPR78 [1] (cre-luc reporter assay, dose-response curves, read-out: IC50, inhibition of GPR78 activation) was 0.65 µM; at GPR26 [2] (cre-luc reporter assay, dose-response curves, read-out: IC50, inhibition of GPR26 activation), 0.26 µM.
For `C[C@]12CC[C@H]3[C@@H](CCC4=CC(=O)CC[C@@]43C)[C@@H]1CC[C@@H]2O` [testosterone], the cAMP stimulation entry on GPR78 [3] is “No cAMP stimulation was observed”.
Turning to `O=c1c(-c2ccc(O)cc2)coc2cc(O)ccc12` [daidzein], the “cAMP level compared to buffer control / genistein” value on GPR78 [3] is listed as “significantly increased cAMP level comparable to that by genistein”.
`Nc1ncnc2c1ncn2C1CCCO1` (centres unmarked) [SQ22536, 9-(Tetrahydro-2-furanyl)-9H-purin-6-amine]: at adenylyl cyclase, the IC50 is 20 µM. In addition, the “reduction of genistein-stimulated cAMP” value on GPR78 [3] (SQ22536 at 20 μM pre-incubated, FIG. 7) turned out to be 25%. Moreover, the “reduction of cAMP level resulting from constitutive activity of GPR78” value at GPR78 [3] (SQ22536 at 20 μM pre-incubated, absence of genistein, FIG. 7) was 34%.
With `CC(=O)[C@H]1CC[C@H]2[C@@H]3CCC4=CC(=O)CC[C@]4(C)[C@H]3CC[C@]12C` [progesterone], the cAMP stimulation entry at GPR78 [3] is listed as “No cAMP stimulation was observed”.
Take `O=c1c(-c2ccc(O)cc2)coc2cc(O)cc(O)c12` [genistein]: the 50% effective concentration (EC50) was about 10 µM at GPR26 [4]; 6 to 10 µM on GPR78 [3]; 7 µM at GPR78 [3] (FIG. 2A, read-out: EC50, induction of cAMP); about 6 µM on GPR78 [7]. The IC50 on protein tyrosine kinase was 1 to 22 µM. Also, at GPR26 [5], the cAMP production entry is recorded as “stimulated cAMP production”. Moreover, the “activation in Ca++ flux assay” value at GPR78 [6] is “not activated”. The “potency of GPR30 activation” value at GPR30 was “low μM range”. Besides, the “increase of luciferase activity (cAMP production) compared to the mock transfection control” value at GPR78 [3] (25 μM genistein, transiently transfected cells, FIG. 1) is “more than 8 fold”.
As for `COc1ccc(-c2coc3cc(O)cc(O)c3c2=O)cc1` [biochanin A], the “cAMP level compared to buffer control / genistein” value on GPR78 [3] was “only slightly induced cAMP levels”.
Consider “neuropeptide S (SFRNGVGTGMKKTSFQRAKS) [ligand of GPR154, positive control in Ca2+ flux assay]”, for which the “response in Ca2+ flux assay” value with GPR154 was “responded to neuropeptide S acutely”.
Take `Cl.Cl.O=S(=O)(NCCNCC=Cc1ccc(Br)cc1)c1cccc2cnccc12` [H89, N-[2-(p-bromocinnamylamino)ethyl]-5-isoquinolinesulfonamide dihydrochloride]: the IC50 at protein kinase A was 0.05 µM. Besides, the “effect on genistein-induced cAMP” value at GPR78 [3] (10 μM H89, 30 min pre-incubation) is on record as “Most of genistein-induced cAMP was reduced”; on GPR78 [3] (100 μM H89, 30 min pre-incubation) it was “all cAMP accumulation was abolished”. For the same molecule, the “effect on basal (constitutive) cAMP level” value at GPR78 [3] (10 μM H89, compared to cells with no H89, FIG. 6A) is reported as “decrease of the basal cAMP level by approximately half”; at GPR78 [3] (100 μM H89, FIG. 6A), “completely inhibited cAMP accumulation”.
On to `N#C/C(=C\c1ccc(O)c(O)c1)C(=O)NCc1ccccc1` [Tyrphostin B42], for which the IC50 on protein tyrosine kinase was 20 µM. Besides, the “cAMP level compared with GPR78-expressing cells stimulated with buffer (Basal)” value on GPR78 [3] (FIG. 1) is reported as “not higher than the level in GPR78-expressing cells stimulated with buffer”.
Consider `CC(C)(C)c1cc(C=C(C#N)C#N)cc(C(C)(C)C)c1O` [Tyrphostin A9], for which the IC50 on protein tyrosine kinase was 0.04 to 9 µM. Besides, the “cAMP level compared with GPR78-expressing cells stimulated with buffer (Basal)” value on GPR78 [3] (FIG. 1) was “not higher than the level in GPR78-expressing cells stimulated with buffer”.
Take `c1ccc2c(c1)[I+]c1ccccc1-2` [diphenyleneiodonium Cl, Diphenyleneiodonium Cl]: the IC50 on GPR78 [1] was 65 µM; on NO synthase (NOS) it was 0.03 µM; against GPR26 [2] it was 39 µM; in the experiment on rabbit aortic rings, 0.3 µM.
